Where “and” joins values, the source holds several entries; their conditions need not be identical. Equal values may be shown once.
Test: mn = molality of the nth substance listed, in mol/kg
Details: 101 kPa, Liquid; for speed of sound: Sing-around technique in a fixed-path interferometer; for mass density: Vibrating tube method

CC1(C)SC2C(NC(=O)C(N)c3ccccc3)C(=O)N2C1C(=O)O (centres undefined) + O
Details | mass density, m1 = 0.0005 [kg/m3] | mass density, m1 = 0.001 [kg/m3] | mass density, m1 = 0.002 [kg/m3] | mass density, m1 = 0.004 [kg/m3] | speed of sound, m1 = 0.0005 [m/s] | speed of sound, m1 = 0.001 [m/s] | speed of sound, m1 = 0.002 [m/s] | speed of sound, m1 = 0.004
305.15 K | 995.119 | 995.211 | 995.313 | 995.507 | 1513.6 | 1513.8 | 1514.1 | 1514.2 m/s
310.15 K | 993.425 | 993.515 | 993.607 | 993.805 | 1523.4 | 1523.6 | 1524.1 | 1524 m/s
315.15 K | 991.53 | 991.614 | 991.711 | 991.91 | 1531.9 | 1532 | 1532.4 | 1532.4 m/s and 1531.9 m/s

NCC(=O)O [2-aminoacetic acid] + O
Details | mass density, m1 = 0.03272 [kg/m3] | mass density, m1 = 0.04933 [kg/m3] | mass density, m1 = 0.0581 [kg/m3] | mass density, m1 = 0.09278 [kg/m3] | mass density, m1 = 0.1392 [kg/m3] | speed of sound, m1 = 0.03272 [m/s] | speed of sound, m1 = 0.04933 [m/s] | speed of sound, m1 = 0.0581 [m/s] | speed of sound, m1 = 0.09278 [m/s] | speed of sound, m1 = 0.1392 [m/s]
305.15 K | 996.158 | 996.664 | 996.929 | – | 999.339 | 1515 | 1515.7 | 1516.1 | 1517.7 | 1519.6
310.15 K | 993.281 | – | 994.038 | 995.054 | – | 1524.9 | 1525.5 | 1525.9 | 1527.3 | 1529
315.15 K | 992.376 | – | 993.122 | 994.122 | 995.416 | 1533.4 | 1534 | 1534.3 | 1535.6 | 1537.2

CC(C)C[C@H](NC(=O)CN)C(=O)O [glycyl-L-leucine] + O
Details | mass density, m1 = 0.03308 [kg/m3] | mass density, m1 = 0.05972 [kg/m3] | mass density, m1 = 0.09457 [kg/m3] | mass density, m1 = 0.1115 [kg/m3] | speed of sound, m1 = 0.03308 [m/s] | speed of sound, m1 = 0.05972 [m/s] | speed of sound, m1 = 0.09457 [m/s] | speed of sound, m1 = 0.1115 [m/s]
305.15 K | 996.762 | 998.038 | 999.652 | 1000.42 | 1518.1 | 1521.8 | 1526.8 | 1529.1
310.15 K | 993.879 | 995.132 | 996.722 | 997.479 | 1528 | 1531.6 | 1536.3 | 1538.6
315.15 K | 992.968 | 994.198 | 995.757 | 996.494 | 1536.5 | 1539.9 | 1544.4 | 1546.6

Source: the NIST ThermoML archive (doi:10.1016/j.tca.2012.10.018)
